Experimental data published in publication PMC3408433, “Selective Cytotoxicity of Amidinopiperidine Based Compounds Towards Burkitt’s Lymphoma Cells Involves Proteasome Inhibition” (PLoS ONE, 2012).

Columns and labels:
[1] = tested on: Ramos Burkitt’s lymphoma cells; assay: Metabolic activity assay (MTS), Ramos; format: cell-based, human; settings: 24 h; for residual metabolic activity relative to control: 50 µM; for cytotoxicity group (Figure 3A) / viability at 100 µM: 100 µM; for viability at 100 µM: Homo sapiens, read-out: residual metabolic activity relative to untreated control
Procedure: When investigating the potency of selected serine protease inhibitors to induce cell death in human B lymphoma cells, we identified a set of compounds cytotoxic for Burkitt’s lymphoma. Using a metabolic activity assay (MTS), we evaluated the proliferation rate of Ramos Burkitt’s lymphoma cells, in the presence of serine protease inhibitors. Cells were treated for 24 h with the compound of interest at concentrations of 100 µM (1–13, 15, 16) or 50 µM (14). After a comparison of metabolic activity relative to that in the untreated control, three groups with distinct modes of action were determined (Figure 3A). […] The second group (compounds 1–3, 5, 7 and 13) caused a moderate decrease (50% to 80%) relative to untreated cells. The last group of compounds (11, 15, 16) severely impaired the metabolic activity, such that it fell to under 6%.
(§1) Cells (1×10^5 cells/mL for Ramos, Daudi, U937 and Jurkat, and 1×10^6 cells/mL for PBMC) were treated with the appropriate amounts of compounds of interest or corresponding vehicle (control cells), then seeded in triplicate in 96 well plates. The metabolic activity was assessed using the CellTiter 96® Aqueous One Solution Cell Proliferation Assay (Promega, Madison/WI, USA), in accordance with the manufacturer’s instructions.

[2] = tested on: human histiocytic lymphoma (U937); assay: Metabolic activity assay (MTS), U937; format: cell-based; settings: U937, 50 µM, 24 h
Procedure: Compounds 11, and 14–16 were further tested for selective cytotoxicity. The experiments were conducted on freshly isolated primary peripheral blood mononuclear cells (PBMC) and three other haematological cancers: human T cell leukaemia (Jurkat), human histiocytic lymphoma (U937) and human Burkitt’s lymphoma (Daudi). An MTS assay was performed following 24 h of treatment with the compound of interest at 50 µM. […] The inhibition of proliferation in Ramos cells, mediated with compounds 15 and 16, was concentration dependent.
as §1

[3] = tested on: NFκB transcriptional activity in Ramos-Blue cells; assay: Quanti-blue assay, NFκB transcriptional activity (SEAP reporter); format: cell-based, human; settings: 50 µM pretreatment 1 h, TNF-α 100 ng/mL, 8 h
Procedure: Ramos-Blue™ cells (Invivogen), which stably express an NF-κB/AP-1-inducible secreted embryonic alkaline phosphate (SEAP) reporter construct, were assayed for NFκB transcriptional activity changes upon pretreating them with the compound of interest (50 µM) for 1 h and subsequently stimulating them with recombinant TNF-α (100 ng/mL). SEAP activity was determined in the supernatant in accordance with the manufacturer’s instructions. Briefly, to 200 µL of QUANTI-Blue regent 20 µL of cell supernatant was added and incubated at 37°C for 3 h. Abosorbance was measured on microplate reader Tecan Safire^2 at 640 nm.

Thrombin = target: Thrombin; set-up: method as in PMID 15497744, PMID 15544050, PMID 17484277; settings: amidolytic assay, chromogenic substrate; determined previously; cited from earlier work
[4] = tested on: ubiquitinated proteins in Ramos cells; assay: Western blot analysis of ubiquitinated proteins; format: cell-based, human; settings: 6 h treatment
Procedure: (§2) Ramos cells were seeded in 6-well culture plates at a concentration of 1×10^6 cells/mL and treated with the compound of interest or corresponding vehicle for 1 h, 2 h or 6 h. After the indicated time points, cells were harvested, washed in ice-cold PBS and lysed in modified RIPA buffer (50 mM Tris-HCl, pH 7.4, 150 mM NaCl, 1% NP−40, 0.25% Na-deoxycholate, 1 mM EDTA, 1 µg/mL aprotinin, 1 mM PMSF and 1× Halt Phosphatase inhibitor cocktail (Thermo Scientific, Pierce Biotechnology, IL, USA)). The lysates were sonicated, rocked on ice for 30 min and centrifuged at 13,000 rpm at 4°C for 15 min. Protein samples were electrophoresed in SDS-polyacrylamide gels and then transferred to nitrocellulose membranes. The primary antibodies used were against ubiquitin, phospho-IκBα, IκBα, p65 and caspase-3 (Cell Signaling, Danvers/MA, USA), and p105/p50 (Santa Cruz Biotechnology, Inc., Santa Cruz/CA, USA), and ß-actin (Sigma-Aldrich). Following incubation with the primary antibody, membranes were washed six times and incubated for 1 h at room temperature with the corresponding dilution of the appropriate secondary antibody conjugated with horseradish peroxidase (Upstate, Temecula, CA, USA). The immunoreactivity of respective proteins of interest was determined by chemiluminescence using the SuperSignal West Femto substrate (Pierce, IL, USA), in accordance with the manufacturer's instructions. […]

Trypsin = target: Trypsin; set-up: method as in PMID 15497744, PMID 15544050, PMID 17484277; settings: amidolytic assay, chromogenic substrate; determined previously; cited from earlier work
[5] = tested on: p105 and IκBα in Ramos cells; assay: Western blot analysis of phospho-p105, p105, phospho-IκB and IκB; format: cell-based, human; settings: total level of both molecules remained the same
Procedure: as §2

[6] = tested on: p65 and p50 translocation in Ramos cells; assay: Subcellular fractionation and Western blot of p65 and p50; format: cell-based, human; settings: 50 µM
Procedure: as §2

SMILES | residual metabolic activity relative to control [1] | cytotoxicity group (Figure 3A) [1] | viability at 100 µM [1] | residual metabolic activity relative to control [2] | reduction of TNF-α-induced NFκB activity (SEAP) [3] | Ki (Thrombin) | polyubiquitinated proteins [4] | Ki (Trypsin) | levels of p105 and IκBα (phosphorylated forms) [5] | translocation of p65 and p50 from the cytoplasm into the nucleus [6]
N=C(N)N1CCC(CN(NS(=O)(=O)c2ccc3ccccc3c2)C(=O)N2CCCCCC2)CC1 [Compound 16] | severe and selective decrease | severely cytotoxic (severely impaired the metabolic activity, such that it fell to under 6%) | < 6% | no or only moderate decreases | over 60% | 500 nM | increased amount of polyubiquitinated proteins | 66 µM |  | 
N=C(N)N1CCC(CN(NS(=O)(=O)c2ccc3ccccc3c2)C(=O)N2CCCCC2)CC1 [Compound 15] | severe and selective decrease | severely cytotoxic (severely impaired the metabolic activity, such that it fell to under 6%) | < 6% | no or only moderate decreases | over 60% | 470 nM |  | 39 µM | accumulation of the phosphorylated forms of p105 and IκBα | no translocation of p65 and p50
